In patent US6825202B2, “Arylsulfonyl derivatives with 5-HT6 receptor affinity” (Syntex (U.S.A.) LLC, priority 2001, dated 2004) one finds melting point data, which are given here for seven compounds.

Counter-ions that a name gives are not always drawn.

Usually melting point stands for the temperature of the solid-liquid transition. Compound `COc1ccc(S(=O)(=O)c2ccc3ccccc3c2)cc1N1CCNCC1` displayed a melting point of 279.9 to 283.3 °C. Then `COc1ccc(S(=O)(=O)c2ccc(Cl)cc2)cc1N1CCNCC1`, with 263.4 to 272.1 °C; and `COc1ccc(S(=O)(=O)c2cccc(Cl)c2)cc1N1CCNCC1`, with 265 to 266.3 °C.

For the compound `COc1ccc(S(=O)(=O)c2cc(Cl)cc(Cl)c2)cc1N1CCNCC1`, the melting point fell in the range of 245.9 to 246.2 °C. The compound `COc1ccc(S(=O)(=O)c2cccc(F)c2)cc1N1CCNCC1` had a melting point of 246 to 250.1 °C. `COc1ccc(S(=O)(=O)c2ccc(Cl)cc2)cc1C1CCNCC1` (as salt: hydrochloride) [compound 301, 4-[5-(4-chloro-benzenesulfonyl)2methoxy-phenyl] piperidine]: the melting point was in the range of 235.5 to 236 °C. Then `COc1ccc(S(=O)(=O)c2ccc(F)c3ccccc23)cc1N1CCNCC1` (as salt: hydrochloride) [compound 401, 1-[5-(4-fluoro-naphthalene-1-sulfonyl)2-methoxyphenyl]piperazine], with 155 to 159 °C.
